Experimental data reported in ChEMBL document CHEMBL1201862, “PubChem BioAssay data set” (2004).
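Step 1: Grow cells in 96-well plates. Step 2: Expose to compound for 48 hours at 5 concentrations. Step 3: Interpolate endpoints linearly; if unreached, use highest concentration. At the GI50, growth is halved.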 Active and inactive are the calls of the source. No stated cut-off is given here; in the data, active = GI50 up to about 1.1 µM and inactive = higher.

What was measured:
Assay in all cases: DTP human tumour cell line panel, 48 h
[1] = tested on: KM12
[2] = tested on: NCI-H23
[3] = tested on: OVCAR-4
[4] = tested on: NCI-H226
[5] = tested on: SN12C
[6] = tested on: COLO 205
[7] = tested on: IGROV-1
[8] = tested on: SF-539
[9] = tested on: HCT-116
[10] = tested on: SK-MEL-2
[11] = tested on: M14
[12] = tested on: SNB-75
[13] = tested on: SF-295
[14] = tested on: TK-10
[15] = tested on: NCI-H460
[16] = tested on: PC-3
[17] = tested on: HT-29
[18] = tested on: UACC-62
[19] = tested on: SF-268
[20] = tested on: NCI-H522

SMILES | GI50 [1] | GI50 [2] | GI50 [3] | GI50 [4] | GI50 [5] | GI50 [6] | GI50 [7] | GI50 [8] | GI50 [9] | GI50 [10] | GI50 [11] | GI50 [12] | GI50 [13] | GI50 [14] | GI50 [15] | GI50 [16] | GI50 [17] | GI50 [18] | GI50 [19] | GI50 [20]
O=C1c2ccccc2C2=Nc3ccncc3CN12 | 90.2 µM (inactive) | > 100 µM (inactive) | > 100 µM (inactive) | > 100 µM (inactive) | > 100 µM (inactive) | > 100 µM (inactive) | > 100 µM (inactive) | > 100 µM (inactive) | > 100 µM (inactive) | > 100 µM (inactive) | > 100 µM (inactive) | 74.5 µM (inactive) | > 100 µM (inactive) | > 100 µM (inactive) | > 100 µM (inactive) | > 100 µM (inactive) | > 100 µM (inactive) | > 100 µM (inactive) | > 100 µM (inactive) | > 100 µM (inactive)
Cc1ccccc1Nc1nc2ccccc2nc1NS(=O)(=O)c1ccccc1 | > 100 µM (inactive) | 43.1 µM (inactive) | 38.5 µM (inactive) | > 100 µM (inactive) | > 100 µM (inactive) | > 100 µM (inactive) | > 100 µM (inactive) | 59.7 µM (inactive) | > 100 µM (inactive) | > 100 µM (inactive) | > 100 µM (inactive) | 56.2 µM (inactive) | 67.1 µM (inactive) | > 100 µM (inactive) | > 100 µM (inactive) | > 100 µM (inactive) | > 100 µM (inactive) | 62.2 µM (inactive) | > 100 µM (inactive) | > 100 µM (inactive)
CC1(C)CC(=O)c2c(nc(SSc3nc4c(c(-c5ccccc5)c3C#N)C(=O)CC(C)(C)C4)c(C#N)c2-c2ccccc2)C1 | > 10 µM (inactive) | > 10 µM (inactive) | > 10 µM (inactive) | > 10 µM (inactive) | > 10 µM (inactive) | > 10 µM (inactive) | > 10 µM (inactive) | > 10 µM (inactive) | > 10 µM (inactive) | > 10 µM (inactive) | > 10 µM (inactive) | > 10 µM (inactive) | > 10 µM (inactive) | > 10 µM (inactive) | > 10 µM (inactive) | > 10 µM (inactive) | > 10 µM (inactive) |  | > 10 µM (inactive) | > 10 µM (inactive)
COC(=O)c1cccc(OC)c1C#Cc1c(OC)cccc1OC | 69.7 µM (inactive) | > 100 µM (inactive) | 54.1 µM (inactive) | > 100 µM (inactive) | > 100 µM (inactive) | > 100 µM (inactive) | > 100 µM (inactive) | > 100 µM (inactive) | > 100 µM (inactive) | > 100 µM (inactive) | > 100 µM (inactive) | > 100 µM (inactive) | > 100 µM (inactive) | > 100 µM (inactive) | > 100 µM (inactive) | > 100 µM (inactive) | > 100 µM (inactive) | > 100 µM (inactive) | > 100 µM (inactive) | 0.47 µM (active)
COc1ccc2cc(NC(=O)N/N=C\c3ccc(Cl)cc3)ccc2c1 | > 100 µM (inactive) | > 100 µM (inactive) | 27 µM (inactive) | > 100 µM (inactive) | > 100 µM (inactive) | > 100 µM (inactive) | 88.7 µM (inactive) | 43.1 µM (inactive) | > 100 µM (inactive) | > 100 µM (inactive) | > 100 µM (inactive) | 72.3 µM (inactive) | 59.6 µM (inactive) | > 100 µM (inactive) | 50 µM (inactive) | > 100 µM (inactive) | > 100 µM (inactive) | 40.3 µM (inactive) | 44.1 µM (inactive) | > 100 µM (inactive)
